Laboratory results reported in article PMC8296573, “Synthesis and Biological Evaluation of Fingolimod Derivatives as Antibacterial Agents” (ACS Omega, 2021).
Values after ≈ are worked out from the molar mass of the structure shown. Like-named read-outs stand apart in the source and are kept apart here.

Tests used:
S. aureus ATCC 12598 = experiment: Antibacterial activity, pre-exposure; assay type: cell-based, Staphylococcus aureus; conditions: for Average inhibition %, biofilms viability / Average inhibition %, planktonic cells viability / inhibition at 5 µM / inhibition at 10 µM / inhibition at 15 µM / inhibition at 25 µM: S. aureus ATCC 12598, pre-exposure, ± SD
Outline: (§1)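 Growth prevention was tested by adding compounds together with the inoculum. Plates were incubated 18 h at 37 °C. Viability was read by resazurin fluorescence and biomass by crystal violet absorbance at 595 nm.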

S. aureus P2 = experiment: Antibacterial activity, pre-exposure; assay type: cell-based, Staphylococcus aureus; conditions: for Average inhibition %, biofilms viability / Average inhibition %, planktonic cells viability / inhibition at 5 µM / inhibition at 10 µM / inhibition at 15 µM / inhibition at 25 µM: S. aureus P2, pre-exposure, ± SD
Outline: as §1

[1] = Cytotoxicity, resazurin staining assay; assay type: cell-based, human; conditions: human, 24 h incubation
Outline: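 A549 and HEp-2 cells (1 × 10^4/well) attached for 24 h before compound addition; HL-60 seeded directly with compounds; 0.25% DMSO final, 24 h exposure. Adherent cells then washed and given 20 μM resazurin for 2 h; HL-60 received resazurin directly for 4 h; fluorescence read-out, 1% Triton X-100 as positive control.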

[2] = Colloidal aggregation by nephelometry; assay type: physicochemical; conditions: 25 µM
Protocol: 3. Aggregation data (Figure S3)
Potential colloidal aggregation in biological assays was studied at five concentrations (5 µM, 10 µM, 15 µM,
25 µM, 50 µM). The original assay conditions were simulated, and the light scattering of potential aggregates
in the mixture was studied by nephelometric methods using Nepheloskan Ascent (Labsystems, Finland).
Aggregation of the blank and compounds fingolimod, 43, 45, 55, 62, 79 and 82 were measured as triplicates
from one independent experiment at 400 V and at room temperature.
formation at 50 µM. […] However, at 15
µM, 10 µM and 5 µM, the obtained values were close to those observed by blank, therefore indicating only
minor or no detectable aggregation.
Figure S3: Aggregation data for fingolimod and compounds 43, 45, 55, 62, 79, 82. RNU = relative nephelometric unit.
The data are shown as the mean ± SD and normalized to the blank.
(1 picture or pasted object on this page, not shown here)

For `CCCCCCCCc1ccc(CCC(N)(CO)CO)cc1` [fingolimod, Fingolimod], which “Average inhibition %, biofilms viability” value (S. aureus ATCC 12598; 5 µM) is on record?
Its value is 16.9 ± 2.9%.

And the “Average inhibition %, planktonic cells viability” value (S. aureus ATCC 12598; 5 µM)?
Its value is 2.9 ± 2.9%.

And the “Average inhibition %, biofilms viability” value (S. aureus ATCC 12598; 10 µM)?
The value was 35.8 ± 17.9%.

And the “Average inhibition %, planktonic cells viability” value (S. aureus ATCC 12598; 10 µM)?
Its value is 34 ± 29.5%.

And the “Average inhibition %, biofilms viability” value (S. aureus ATCC 12598; 15 µM)?
The value was 99.2 ± 0.5%.

And the “Average inhibition %, planktonic cells viability” value (S. aureus ATCC 12598; 15 µM)?
The value was 99.7 ± 0%.

What about the “Average inhibition %, biofilms viability” value (S. aureus ATCC 12598; 25 µM) of the same compound?
The value was 99.6 ± 0.3%.

And the “Average inhibition %, planktonic cells viability” value (S. aureus ATCC 12598; 25 µM)?
The value was 99.7 ± 0%.

What about the inhibition at 5 µM (S. aureus ATCC 12598; Staphylococcus aureus, ATCC12598, 5 µM, read-out: Average inhibition %, biofilms biomass) of the same compound?
Its inhibition at 5 µM is 18.5 ± 17.7%.

What about the inhibition at 5 µM (S. aureus ATCC 12598; Staphylococcus aureus, ATCC12598, 5 µM, read-out: Average inhibition %, planktonic cells turbidity) of the same compound?
The inhibition at 5 µM was 6.3 ± 8.7%.

And the inhibition at 10 µM (S. aureus ATCC 12598; Staphylococcus aureus, ATCC12598, 10 µM, read-out: Average inhibition %, biofilms biomass)?
Its inhibition at 10 µM is 43.2 ± 15.8%.

What about the inhibition at 10 µM (S. aureus ATCC 12598; Staphylococcus aureus, ATCC12598, 10 µM, read-out: Average inhibition %, planktonic cells turbidity) of the same compound?
Its inhibition at 10 µM is 21.5 ± 27.1%.

What about the inhibition at 15 µM (S. aureus ATCC 12598; Staphylococcus aureus, ATCC12598, 15 µM, read-out: Average inhibition %, biofilms biomass) of the same compound?
The inhibition at 15 µM was 94.5 ± 1.1%.

What about the inhibition at 15 µM (S. aureus ATCC 12598; Staphylococcus aureus, ATCC12598, 15 µM, read-out: Average inhibition %, planktonic cells turbidity) of the same compound?
Its inhibition at 15 µM is 99.6 ± 0.1%.

What about the inhibition at 25 µM (S. aureus ATCC 12598; Staphylococcus aureus, ATCC12598, 25 µM, read-out: Average inhibition %, biofilms biomass) of the same compound?
The inhibition at 25 µM was 95.2 ± 0.4%.

What about the inhibition at 25 µM (S. aureus ATCC 12598; Staphylococcus aureus, ATCC12598, 25 µM, read-out: Average inhibition %, planktonic cells turbidity) of the same compound?
Its inhibition at 25 µM is 99.2 ± 0.1%.

And the MIC (S. aureus ATCC 12598; Staphylococcus aureus, ATCC12598, pre-exposure, 18 h, read-out: MIC S. aureus ATCC 12598)?
Its MIC is 15 µM (≈ 4.61 µg/mL).

And the “Average inhibition %, biofilms viability” value (S. aureus P2; 5 µM)?
Its value is 18.2 ± 17%.

What about the “Average inhibition %, planktonic cells viability” value (S. aureus P2; 5 µM) of the same compound?
The value was 4.3 ± 7.4%.

What about the “Average inhibition %, biofilms viability” value (S. aureus P2; 10 µM) of the same compound?
Its value is 55.4 ± 38%.

And the “Average inhibition %, planktonic cells viability” value (S. aureus P2; 10 µM)?
The value was 45 ± 45.6%.

What about the “Average inhibition %, biofilms viability” value (S. aureus P2; 15 µM) of the same compound?
The value was 99.8 ± 0%.

And the “Average inhibition %, planktonic cells viability” value (S. aureus P2; 15 µM)?
The value was 99.8 ± 0%.

And the “Average inhibition %, biofilms viability” value (S. aureus P2; 25 µM)?
The value was 99.8 ± 0.1%.

And the “Average inhibition %, planktonic cells viability” value (S. aureus P2; 25 µM)?
Its value is 99.7 ± 0%.

And the MIC (S. aureus P2; Staphylococcus aureus, P2, pre-exposure, 18 h)?
Its MIC is 15 µM (≈ 4.61 µg/mL).

What about the inhibition at 5 µM (S. aureus P2; Staphylococcus aureus, 5 µM, read-out: Average inhibition %, biofilms biomass) of the same compound?
Its inhibition at 5 µM is 34.9 ± 19%.

What about the inhibition at 5 µM (S. aureus P2; Staphylococcus aureus, 5 µM, read-out: Average inhibition %, planktonic cells turbidity) of the same compound?
The inhibition at 5 µM was 3.3 ± 5.8%.

And the inhibition at 10 µM (S. aureus P2; Staphylococcus aureus, 10 µM, read-out: Average inhibition %, biofilms biomass)?
The inhibition at 10 µM was 64.3 ± 29.1%.

And the inhibition at 10 µM (S. aureus P2; Staphylococcus aureus, 10 µM, read-out: Average inhibition %, planktonic cells turbidity)?
The inhibition at 10 µM was 39.5 ± 45.1%.

What about the inhibition at 15 µM (S. aureus P2; Staphylococcus aureus, 15 µM, read-out: Average inhibition %, biofilms biomass) of the same compound?
The inhibition at 15 µM was 98.3 ± 0.1%.

What about the inhibition at 15 µM (S. aureus P2; Staphylococcus aureus, 15 µM, read-out: Average inhibition %, planktonic cells turbidity) of the same compound?
The inhibition at 15 µM was 99.6%.

What about the inhibition at 25 µM (S. aureus P2; Staphylococcus aureus, 25 µM, read-out: Average inhibition %, biofilms biomass) of the same compound?
The inhibition at 25 µM was 98 ± 0.4%.

What about the inhibition at 25 µM (S. aureus P2; Staphylococcus aureus, 25 µM, read-out: Average inhibition %, planktonic cells turbidity) of the same compound?
Its inhibition at 25 µM is 99.3 ± 0.1%.

And the CC50 at 24 h ([1]; A549 cells)?
The CC50 at 24 h was over 40 µM.

What about the CC50 at 24 h ([1]; HEp-2 cells) of the same compound?
Its CC50 at 24 h is over 40 µM.

What about the CC50 at 24 h ([1]; HL-60 cells) of the same compound?
Its CC50 at 24 h is 36.1 ± 13.4 µM.

What about the “Aggregation (nephelometry)” value [2] of the same compound?
Its value is “potential aggregation”.
